From ChEMBL document CHEMBL3244224, “Synthesis and central nervous system activity of 2-arylidene-4-aminoalkyl-2H-1,4-benzoxazin-3(4H)-ones and related compounds” (J Med Chem, 1977)
Activity calls are given as the source filed them. No cut-off for these calls is given here.

Assays:
[1] = tested on: Rattus norvegicus; test: Central nervous system activity in ip dosed rat assessed as dose required to cause depression by measuring decreased motor activity; format: functional
[2] = tested on: Rattus norvegicus; test: Central nervous system activity in ip dosed rat assessed as dose required to cause decreased reflex action by measuring decreased grip strength; format: functional
[3] = species: Rattus norvegicus; test: (§1) Antagonist activity at dopamine receptor in Sprague-Dawley rat olfactory tubercles assessed as inhibition of dopamine-induced adenylate cyclase activity after 5 mins; format: tissue-based; conditions: Olfactory tubercle
[4] = species: Rattus norvegicus; test: Antagonist activity at dopamine receptor in Sprague-Dawley rat olfactory tubercles assessed as inhibition of dopamine-induced adenylate cyclase activity at 100 uM after 5 mins; format: tissue-based; conditions: Olfactory tubercle
[5] = species: Rattus norvegicus; test: (§2) Antagonist activity at dopamine receptor in Sprague-Dawley rat olfactory tubercles assessed as inhibition of adenylate cyclase activity after 5 mins; format: tissue-based; conditions: Olfactory tubercle
[6] = species: Rattus norvegicus; test: Antagonist activity at dopamine receptor in Sprague-Dawley rat olfactory tubercles assessed as inhibition of adenylate cyclase activity at 100 uM after 5 mins; format: tissue-based; conditions: Olfactory tubercle
[7] = as §1; format: tissue-based, Olfactory tubercle; conditions: read-out: I50
[8] = as §2; format: tissue-based, Olfactory tubercle; conditions: read-out: I50
[9] = species: Rattus norvegicus; test: Antagonist activity at dopamine receptor in Sprague-Dawley rat olfactory tubercles assessed as inhibition of adenylate cyclase activity at 10 uM after 5 mins; format: tissue-based; conditions: Olfactory tubercle

Compound | ED [1] [mg/kg] | ED [2] [mg/kg] | I50 [3] | inhibition [4] [%] | I50 [5] | inhibition [6] [%] | IC50 [7] [µM] | IC50 [8] [µM] | inhibition [9] [%]
Cl.O=C1/C(=C/c2ccccc2)Oc2ccccc2N1CCN1CCOCC1 | >200 | >200 | inactive | < 10 | inactive | < 10 | – | – | –
CN(C)CCCN1C(=O)/C(=C/c2ccc(Cl)cc2)Oc2ccccc21.Cl | 100 | 100 | – | – | – | – | 30 | 450 | –
CN(C)CCCCN1C(=O)/C(=C/c2ccccc2)Oc2ccccc21.Cl | >200 | 50 | – | – | – | – | 80 | > 200 | –
CN(C)CCCN1C(=O)C(Cc2ccccc2)Oc2ccccc21.Cl (stereo not given) | 100 | 50 | – | – | – | – | – | – | –
CN1CCN(CCCN2C(=O)C(Cc3ccccc3)Oc3ccccc32)CC1.Cl (stereo not given) | >200 | 50 | – | – | – | – | – | – | –
Cl.O=C1/C(=C/c2ccccc2)Oc2ccccc2N1CCCN1CCN(CO)CC1 | 100 | 100 | – | – | – | – | 54 | > 400 | –
CN(C)CCN1C(=O)C(Cc2ccccc2)Oc2ccccc21.Cl (stereo not given) | >200 | 200 | – | – | – | – | – | – | –
OCCN1CCN(CCCN2c3ccccc3Sc3ccc(C(F)(F)F)cc32)CC1 [FLUPHENAZINE] | – | – | – | – | inactive | – | 0.5 | – | < 10
Cl.O=C1/C(=C/c2ccccc2)Oc2ccccc2N1CCCN1CCN(c2ccccc2)CC1 | 100 | 100 | inactive | < 10 | inactive | < 10 | – | – | –
CN(C)CCCN1C(=O)/C(=C/c2ccccc2)Oc2ccc(Cl)cc21.Cl | >200 | 200 | – | – | – | – | 100 | > 100 | –
CN1CCN(CCCN2C(=O)/C(=C/c3ccccc3)Oc3ccccc32)CC1.Cl | 50 | 12.5 | – | – | – | – | 35 | 450 | –
CN(C)CCCN1C(=O)C(Cc2ccccc2)Oc2ccc(Cl)cc21.Cl (stereo not given) | >200 | 100 | – | – | – | – | – | – | –
CN(C)CCCN1C(=O)/C(=C/c2cccs2)Oc2ccccc21.Cl | 100 | 100 | – | – | – | – | 56 | > 200 | –
CN(C)CCN1C(=O)/C(=C/c2ccccc2)Oc2ccccc21.Cl | 50 | 50 | – | – | – | – | 100 | > 100 | –
CCCC(C)(COC(N)=O)COC(N)=O [MEPROBAMATE] | 50 | 25 | – | – | – | – | – | – | –
CCN(CC)CCCN1C(=O)/C(=C/c2ccccc2)Oc2ccccc21.Cl | 50 | 12.5 | – | – | – | – | 60 | > 100 | –
O=C1Nc2ccccc2O/C1=C\c1ccccc1 | >200 | >200 | inactive | < 10 | inactive | < 10 | – | – | –
Cc1ccc2c(c1)N(CCCN(C)C)C(=O)/C(=C/c1ccccc1)O2.O=C(O)CCC(=O)O | 100 | 100 | – | – | – | – | 15 | 450 | –
CN(C)CCCN1C(=O)/C(=C/c2ccccc2Cl)Oc2ccccc21.Cl | >200 | 100 | – | – | – | – | 30 | 170 | –
CN(C)CCCN1C(=O)/C(=C/c2ccccc2)Oc2ccccc21.Cl | 25 | 25 | – | – | – | – | 33 | 600 | –
CN1CCN(C2=Nc3cc(Cl)ccc3Nc3ccccc32)CC1 [CLOZAPINE] | – | – | – | – | inactive | < 10 | 6 | – | –
CN1CCN(CCCN2C(=O)/C(=C/c3ccccc3)Oc3ccc(Cl)cc32)CC1 | >200 | >200 | – | – | – | – | > 500 | > 500 | –
COc1ccc2c(c1)N(CCCN(C)C)C(=O)/C(=C/c1ccccc1)O2.Cl | >200 | >200 | – | – | – | – | 60 | > 100 | –
C[N+](C)(C)CCCN1C(=O)/C(=C/c2ccccc2)Oc2ccccc21.[Cl-] | 50 | 50 | – | – | – | – | 650 | 1000 | –
